Measurements published in patent publication US9512074B2, “Radiolabeled inhibitors of the amino acid transporters ASCT1 and ASCT2” (The University of Montana, priority 2011, dated 2016).

Columns and labels:
[1] = target: T1, Human ASCT1 (Homo sapiens, UniProt P43007); experiment: Inhibition of anion leak current, two-electrode voltage clamp in Xenopus oocytes expressing human ASCT1; assay type: cell-based; details: for Ki: Xenopus oocytes expressing human ASCT1, held at −20 mV, * = actual Ki, others Ki estimates, read-out: Ki (μM) ACST1
T1 construct: expressed in transfected cells; host or cells: Xenopus laevis oocytes (cRNA microinjection)
T1 sequence (P43007 1-532): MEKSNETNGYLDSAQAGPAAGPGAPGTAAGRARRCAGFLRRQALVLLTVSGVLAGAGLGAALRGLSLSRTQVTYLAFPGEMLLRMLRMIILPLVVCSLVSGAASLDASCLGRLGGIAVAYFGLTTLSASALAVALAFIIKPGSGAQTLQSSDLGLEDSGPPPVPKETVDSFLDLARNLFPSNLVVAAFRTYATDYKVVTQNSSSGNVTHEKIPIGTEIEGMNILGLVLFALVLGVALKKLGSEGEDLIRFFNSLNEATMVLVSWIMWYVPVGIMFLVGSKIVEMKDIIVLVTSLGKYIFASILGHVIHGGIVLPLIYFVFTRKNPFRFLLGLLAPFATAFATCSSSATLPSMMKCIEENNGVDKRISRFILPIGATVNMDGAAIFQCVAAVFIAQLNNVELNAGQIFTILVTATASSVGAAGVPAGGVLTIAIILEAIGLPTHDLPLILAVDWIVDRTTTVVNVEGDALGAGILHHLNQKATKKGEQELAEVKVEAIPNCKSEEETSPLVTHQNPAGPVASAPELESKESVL
Protocol: (§1) Human ASCT1 and murine ASCT2 cRNA were microinjected in stage V-VI oocytes. Uncoupled anion currents associated with the transport of substrate were recorded 3-5 days later as previously described (Zerangue & Kavanaugh, 1996). Recording solution contained 50 mM NaCl, 50 mM NaSCN, 2 mM KCl, 1 mM MgCl2, 1.8 mM CaCl2, and 5 mM HEPES (pH 7.4). Using two-electrode voltage clamp (TEVC), oocytes were held at −20 mV. Microelectrodes were filled with 3M KCl and had resistances from 1 to 3 MΩ. Recordings were performed at 22° C. with a Geneclamp 500 amplifier connected to a PowerLab 2/26 (AD instruments). The digital output was interfaced to a MacBook Pro (Macintosh) using Chart v7.1.2 software. The currents were low-pass filtered at 10 Hz and acquired at 20 Hz. Data was analyzed offline and modeling and fitting of substrate concentration-dependence of the currents was performed with Kaleidagraph software (v 4.04). The concentration dependent percent block of the anion leak or substrate activation of the anion current were fit with the Michaelis-Menten equation (Ianion=Imax×[Drug]/(Km+[Drug])) to define the Ki of inhibition or the apparent affinity (Km) of transport, respectively.

[2] = target: T2, murine ASCT2 (Mus musculus, UniProt P51912); experiment: Inhibition of anion leak current, two-electrode voltage clamp in Xenopus oocytes expressing mouse ASCT2; assay type: cell-based; details: for Ki: Xenopus oocytes expressing mouse ASCT2, held at −20 mV, * = actual Ki, others Ki estimates
T2 construct: expressed in transfected cells; host or cells: Xenopus laevis oocytes (cRNA microinjection)
T2 sequence (P51912 1-553): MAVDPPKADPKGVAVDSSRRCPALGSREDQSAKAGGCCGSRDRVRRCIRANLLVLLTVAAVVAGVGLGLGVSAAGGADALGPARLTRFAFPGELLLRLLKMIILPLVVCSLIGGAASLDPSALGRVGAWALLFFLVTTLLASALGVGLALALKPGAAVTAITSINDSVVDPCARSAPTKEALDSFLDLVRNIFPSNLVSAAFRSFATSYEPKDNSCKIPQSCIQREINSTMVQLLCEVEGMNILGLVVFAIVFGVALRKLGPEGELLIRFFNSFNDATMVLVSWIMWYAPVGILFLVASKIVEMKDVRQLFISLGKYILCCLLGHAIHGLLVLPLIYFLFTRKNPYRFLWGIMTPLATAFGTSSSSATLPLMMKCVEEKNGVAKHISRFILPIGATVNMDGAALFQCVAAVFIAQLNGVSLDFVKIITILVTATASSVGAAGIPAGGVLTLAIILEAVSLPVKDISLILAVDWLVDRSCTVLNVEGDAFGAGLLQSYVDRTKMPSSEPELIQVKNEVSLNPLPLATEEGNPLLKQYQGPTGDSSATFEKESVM
Protocol: as §1

[3] = 300 μM, −20 mV, opposite the current induced by substrate

| SMILES | Ki [1] | Ki [2] | block of leak current in mASCT2 (FIG. 4) [2, 3] | block of leak current in hASCT1 (FIG. 4) [1, 3] |
| --- | --- | --- | --- | --- |
| O=C(O)[C@H]1NC[C@@H](OCc2cccc(Oc3ccccc3)c2)[C@@H]1O [CSE130] | 13 µM | 10 µM |  |  |
| C[C@@]1(O)CN[C@H](C(=O)O)C1 [CSE96, cis-4-hydroxy-trans-4-methyl-L-proline] | > 500 µM | 1080 µM |  |  |
| O=C(O)[C@H]1NC[C@@H](Oc2ccccc2)C1O (stereo in doubt) [CSE118, (2S,3S,4R)-3-hydroxy-4-phenoxy-proline] | 150 µM | 141 µM |  |  |
| O=C(O)[C@H]1NC[C@@H](OCc2ccccc2)[C@@H]1O [CSE121, trans-3-hydroxy-cis-4-benzyloxy-L-proline] | 39 µM | 69 µM | blocking a leak current |  |
| O=C(O)[C@H]1NC[C@H](OCc2ccccc2)[C@H]1O [CSE113, cis-3-hydroxy-trans-4-benzyloxy-L-proline] | 493 µM | 828 µM |  |  |
| O=C(O)[C@H]1NC[C@H](O)[C@H]1Oc1ccccc1 [CSE117, (2S,3S,4S)-3-phenoxy-4-hydroxy-proline] | 594 µM | 502 µM |  |  |
| O=C(O)[C@@H]1C[C@H](O)CN1 [CSE111] | 805 µM | 872 µM |  |  |
| C[C@]1(O)CN[C@H](C(=O)O)C1 [CSE95, cis-4-methyl-trans-4-hydroxy-L-proline] | > 500 µM | 926 µM |  |  |
| O=C(O)[C@H]1NC[C@@H](OCc2cccc3ccccc23)[C@@H]1O [CSE132] | ~10 µM | ~10 µM |  |  |
| O=C(O)[C@H]1NC[C@@H](c2ccccc2)[C@@H]1O [CSE104, (2S,3S,4R)-3-hydroxy-4-phenyl-proline] | > 500 µM | > 500 µM |  |  |
| O=C(O)[C@H]1NC[C@@H](OCc2ccc(-c3ccccc3)cc2)[C@@H]1O [CSE131, (2S,3R,4R)-3-hydroxy-4-o-methyl-p-biphenyl-proline] | 0.31 µM | 0.24 µM |  |  |

Now from value to compound:

| Ki [1] | Ki [2] | block of leak current in mASCT2 (FIG. 4) [2, 3] | block of leak current in hASCT1 (FIG. 4) [1, 3] | SMILES |
| --- | --- | --- | --- | --- |
| 332 µM | 1130 µM |  |  | O=C(O)[C@H]1NC[C@H](O)[C@H]1c1ccccc1 [CSE103, (2S,3S,4R)-3-phenyl-4-hydroxy-proline] |
| 564 µM | 922 µM |  |  | C[C@H]1[C@@H](C(=O)O)NC[C@@H]1O [CSE109] |
| 1050 µM | 1150 µM |  |  | C[C@@H]1CN[C@H](C(=O)O)[C@H]1O [CSE110] |
| 237 µM | 268 µM |  | blocking a leak current | CC(C)O[C@@H]1CN[C@H](C(=O)O)[C@H]1O [CSE122] |
| > 500 µM | > 500 µM |  |  | CC(C)O[C@H]1CN[C@H](C(=O)O)[C@@H]1O [CSE127, cis-3-hydroxy-trans-4-isopropoxy-L-proline] |
| 481 µM | 600 µM |  |  | CO[C@H]1CN[C@H](C(=O)O)[C@@H]1O [CSE124] |
| 214 µM | 235 µM |  |  | CO[C@@H]1CN[C@H](C(=O)O)[C@H]1O [CSE115, trans-3-hydroxy-cis-4-methoxy-L-proline] |
